How the values were obtained:
[1] = Microsomal stability in human liver microsomes (HLMs); type: in vitro ADME; settings: LC-MS/MS analysis
Procedure: In our assay we followed the loss of the test compounds over time under CYP‐mediated metabolic pathways. The extent of hepatic metabolism allowed us the determination of different pharmacokinetic parameters such as in vitro t1/2, CLint, in vitro and CLint, in vivo. In vitro t1/2 and CLint, in vitro of test compounds after liver microsomes incubation were calculated according to “well‐stirred” model. In the “well‐stirred” model, the liver is represented by a single compartment, where the unbound concentration of a drug leaving the liver is in equilibrium with the intracellular unbound concentration in the hepatocytes.^[ [53] ^] Predicted CLint, invivo values were determined using human PBSF.^[ [54] ^]
The microsomal stability of compounds 2 and 9 was assessed according to the previously described protocol.^[ [73] ^] […] The supernatants were collected and analyzed by LC‐MS/MS. The extent of metabolism is quantified as a percentage of the parent compound turnover. […] In vitro half‐lives (t1/2) were calculated using the expression t1/2 = 0.693/b, where b is the slope found in the linear fit of the natural logarithm of the fraction remaining of the parent compound versus incubation time. Microsomal intrinsic clearance was calculated as CLint , in vitro = (1000) × (0.693/t1/2)/0.5. […]

[2] = target: T1, BRD9 (BD1) (Homo sapiens, UniProt Q9H8M2); assay: AlphaScreen assay, BRD9 (BD1) Inhibitor Screening Assay Kit; type: binding
T1 construct: BSP‐32519
T1 sequence (Q9H8M2 136-240 limits assumed): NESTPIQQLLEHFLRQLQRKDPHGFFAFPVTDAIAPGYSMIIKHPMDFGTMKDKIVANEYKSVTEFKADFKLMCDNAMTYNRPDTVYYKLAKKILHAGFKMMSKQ
Procedure: The evaluation of the interaction between synthesized compounds and BRD9 was conducted using AlphaScreen Technology using an Enspire microplate analyzer (Perkin Elmer)^[ [70] ^] and the BRD9 (BD1) Inhibitor Screening Assay Kit (BSP‐32519) as reported by Colarusso et al.^[ [38], [39] ^] IC50 values were calculated by GraphPad Prism10 software.

[3] = Human plasma stability; type: in vitro ADME; settings: incubation up to 120 minutes, 37 °C, read-out: compound recovery after incubation with human plasma
Procedure: The plasma stability of compounds 2 and 9 was evaluated. Briefly, the plasma was equilibrated at 37 °C, and biotransformation was initiated by adding the compound solution and mixing. At each specified time point (0, 60, and 120 minutes), test compounds were extracted into 200 µL ice‐cold methanol to stop degradation. Tolbutamide was added during the quenching phase. Finally, the concentration of the test compound was monitored by LC‐MS. The percentage of the test compound remaining at each individual time point was reported. The results are reported as mean ± SD from three independent experiments. Procaine and procainamide were used as controls.

[4] = target: T2, BRD9 (Homo sapiens, UniProt Q9H8M2); assay: Western blotting of BRD9 protein levels in U937 cells; type: cell-based
T2 construct: WB analysis showing BRD9 protein levels following 48‐hours treatments with compounds 2−8; endogenous in cells; host or cells: U937 (ATCC)
T2 sequence (Q9H8M2 1-597): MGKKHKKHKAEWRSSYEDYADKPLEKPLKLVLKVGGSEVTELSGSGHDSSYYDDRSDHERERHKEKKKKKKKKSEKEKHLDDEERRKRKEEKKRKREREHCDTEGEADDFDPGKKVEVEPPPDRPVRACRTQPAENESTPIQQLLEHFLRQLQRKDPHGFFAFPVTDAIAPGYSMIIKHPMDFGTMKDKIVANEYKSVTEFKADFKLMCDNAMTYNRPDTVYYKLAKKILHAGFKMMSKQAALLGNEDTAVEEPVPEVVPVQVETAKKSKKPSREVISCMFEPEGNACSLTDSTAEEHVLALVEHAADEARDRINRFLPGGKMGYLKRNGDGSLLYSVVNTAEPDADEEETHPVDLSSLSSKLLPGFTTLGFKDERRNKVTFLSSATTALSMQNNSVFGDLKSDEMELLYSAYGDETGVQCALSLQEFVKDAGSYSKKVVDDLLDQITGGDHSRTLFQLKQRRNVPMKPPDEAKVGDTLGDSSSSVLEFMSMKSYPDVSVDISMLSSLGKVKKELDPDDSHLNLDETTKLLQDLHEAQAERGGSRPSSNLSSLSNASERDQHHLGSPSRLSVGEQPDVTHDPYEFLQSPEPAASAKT
Procedure: Cells have been authenticated by STR profiling.
Western blot was performed according to the previous protocol.^[ [71], [72] ^] U937 AML cells were pelleted and then lysed in RIPA buffer (1% Triton X‐100, 0.1% SDS, 150 mM NaCl, 1 mM EDTA pH 8, 10 mM Tris‐HCl pH 8) added with 1% protease inhibitor cocktail. The resulting lysate was subjected to centrifugation for 15 minutes at 4 °C. […] The protein signal was visualized by enhanced chemiluminescence method (ECL) through the Bio‐Rad Chemidoc machine. ImageJ software was used for densitometric analysis.

[5] = system: U937 cells; assay: Proliferation assay (trypan blue exclusion cell counting) in U937 cells; type: cell-based, human; settings: time-point treatment
Procedure: The AML U937 cell line (ATCC) was grown in Roswell Park Memorial Institute (RPMI) 1640 Medium with the addition of 10% fetal bovine serum (FBS), 1% L‐glutamine, and 1% antibiotics (100 U/mL penicillin, 100 µg/mL streptomycin, and 250 ng/mL amphotericin‐B). Cells have been authenticated by STR profiling.
Trypan blue exclusion cell counting has been used to trace the number of cells over the different times of analysis.

CCCCc1nnc2c(Nc3cccc(NC(=O)CCCCCCOCCOCC(=O)N[C@H](C(=O)N4C[C@H](O)C[C@H]4C(=O)NCc4ccc(-c5scnc5C)cc4)C(C)(C)C)c3)nc3ccccc3n12 [compound 9]
primary metabolites after incubation with HLMs [1]: dealkylation reactions | IC50 ([2]; AlphaScreen, read-out: IC50, BRD9 binding): 660 ± 40 nM | fold higher binding affinity to BRD9 compared to degrader 2 ([2]; compared to compound 2): 4.5 fold | recovery at 120 min [3]: ≥ 90% | BRD9 protein levels with proteasome inhibitor MG132 ([4]; 48 hours treatment with or without MG132 (25 µM for 6 hours)): MG132 treatment rescued BRD9 depletion | concentration at which BRD9 degradation is effectively induced ([4]; 48 hours treatment, western blot): 1 µM | AML cell proliferation [5]: negatively affected AML cell proliferation
